Ends that are not written are not given here.
Columns and labels:
[1] = test system: neural stem cells procured from mice; assay: Neuronal differentiation-inducing activity in mouse neural stem cell culture (immune antibody procedure, MAPs and NeuN markers); format: cell-based; details: same tests as for samples 1 and 6 (10 ng/mL and 100 ng/mL, 24 hours), concentration of the result not stated
[2] = test system: adipose stem cells procured from humans; assay: Neuronal differentiation-inducing activity in human adipose stem cell culture (immune antibody procedure, MAPs and NeuN markers); format: cell-based; details: same tests as for samples 1 and 6 (10 ng/mL and 100 ng/mL, 24 hours), concentration of the result not stated

Substance: YARAAARQARA-SLQFLALKALISERR (YARAAARQARASLQFLALKALISERR-NH2) [sample 21]
- degree of neuronal differentiation [1]: significant neuronal differentiation
- degree of neuronal differentiation [2]: significant neuronal differentiation

Substance: YARAAARQARA-SLQHICRMSI (YARAAARQARASLQHICRMSI) [sample 17, PTD4 plus 10 residues from the N terminal of the BC-box of mWSB-1]
- degree of neuronal differentiation [1]: significant neuronal differentiation
- degree of neuronal differentiation [2]: significant neuronal differentiation

Substance: YARAAARQARA-TLQHLCRKTVNGHLD (YARAAARQARATLQHLCRKTVNGHLD) [sample 13]
- degree of neuronal differentiation [1]: significant neuronal differentiation
- degree of neuronal differentiation [2]: significant neuronal differentiation

Substance: YARAAARQARA-PLMDLCRRSVRLALG (YARAAARQARAPLMDLCRRSVRLALG) [sample 20]
- degree of neuronal differentiation [1]: significant neuronal differentiation
- degree of neuronal differentiation [2]: significant neuronal differentiation

Substance: YARAAARQARA-SLQYLCKFVI (YARAAARQARASLQYLCKFVI) [sample 22]
- degree of neuronal differentiation [1]: significant neuronal differentiation
- degree of neuronal differentiation [2]: significant neuronal differentiation

Substance: YARAAARQARA-SLQHICRMSIRRVMS (YARAAARQARASLQHICRMSIRRVMS) [sample 2]
- degree of neuronal differentiation [1]: significant neuronal differentiation
- degree of neuronal differentiation [2]: significant neuronal differentiation

Substance: YARAAARQARA-TLLSLCRVAVRRALG (YARAAARQARATLLSLCRVAVRRALG) [sample 3]
- degree of neuronal differentiation [1]: significant neuronal differentiation
- degree of neuronal differentiation [2]: significant neuronal differentiation

Substance: YARAAARQARA-SLTHLCRLEIRSSIK (YARAAARQARASLTHLCRLEIRSSIK) [sample 8]
- degree of neuronal differentiation [1]: significant neuronal differentiation
- degree of neuronal differentiation [2]: significant neuronal differentiation

Substance: YARAAARQARA-SLQYICRAVICRCTT (YARAAARQARASLQYICRAVICRCTT) [sample 9]
- degree of neuronal differentiation [1]: significant neuronal differentiation
- degree of neuronal differentiation [2]: significant neuronal differentiation

Substance: YARAAARQARA-SLQYLALKALVTPKK (YARAAARQARASLQYLALKALVTPKK-NH2) [sample 19]
- degree of neuronal differentiation [1]: significant neuronal differentiation
- degree of neuronal differentiation [2]: significant neuronal differentiation

Substance: YARAAARQARA-SLQHLCRFRIRQLVR (YARAAARQARASLQHLCRFRIRQLVR) [sample 4]
- degree of neuronal differentiation [1]: significant neuronal differentiation
- degree of neuronal differentiation [2]: significant neuronal differentiation

Substance: YARAAARQARA-SLQHLCRLVINRLVA (YARAAARQARASLQHLCRLVINRLVA) [sample 24]
- degree of neuronal differentiation [1]: significant neuronal differentiation
- degree of neuronal differentiation [2]: significant neuronal differentiation

Substance: YARAAARQARA-SLQHICRTVICNCTT (YARAAARQARASLQHICRTVICNCTT) [sample 14]
- degree of neuronal differentiation [1]: significant neuronal differentiation
- degree of neuronal differentiation [2]: significant neuronal differentiation

Substance: YARAAARQARA-SLQYLCRFVI (YARAAARQARASLQYLCRFVI) [sample 15, PTD4 plus 10 residues from the N terminal of the BC-box of hSOCS-6]
- degree of neuronal differentiation [1]: significant neuronal differentiation
- degree of neuronal differentiation [2]: significant neuronal differentiation

Substance: YARAAARQARA-TLQHFCRLAINKCT (YARAAARQARATLQHFCRLAINKCT) [sample 12]
- degree of neuronal differentiation [1]: significant neuronal differentiation
- degree of neuronal differentiation [2]: significant neuronal differentiation

Substance: YARAAARQARA-PLQELCRQRIVAAVG (YARAAARQARAPLQELCRQRIVAAVG) [sample 11]
- degree of neuronal differentiation [1]: significant neuronal differentiation
- degree of neuronal differentiation [2]: significant neuronal differentiation

Substance: YARAAARQARA-PLAHLCRLRVRKAIG (YARAAARQARAPLAHLCRLRVRKAIG) [sample 7]
- degree of neuronal differentiation [1]: significant neuronal differentiation
- degree of neuronal differentiation [2]: significant neuronal differentiation

Substance: YARAAARQARA-SLQDLCCRAVVSCTP (YARAAARQARASLQDLCCRAVVSCTP) [sample 10]
- degree of neuronal differentiation [1]: significant neuronal differentiation
- degree of neuronal differentiation [2]: significant neuronal differentiation

Substance: YARAAARQARA-TLLSLCRVAV (YARAAARQARATLLSLCRVAV) [sample 16, PTD4 plus 10 residues from the N terminal of the BC-box of mASB-1]
- degree of neuronal differentiation [1]: significant neuronal differentiation
- degree of neuronal differentiation [2]: significant neuronal differentiation

Substance: YARAAARQARA-ALFELCGRAV (YARAAARQARAALFELCGRAV) [sample 23, PTD4 plus 10 residues from the N terminal of the BC-box of MUF1]
- degree of neuronal differentiation [1]: significant neuronal differentiation
- degree of neuronal differentiation [2]: significant neuronal differentiation

Substance: YARAAARQARA-SLKHLCRKALRSFLT (YARAAARQARASLKHLCRKALRSFLT) [sample 5]
- degree of neuronal differentiation [1]: significant neuronal differentiation
- degree of neuronal differentiation [2]: significant neuronal differentiation

Substance: YARAAARQARA-SLQYLCRFVIRQYTK (YARAAARQARASLQYLCRFVIRQYTK) [sample 18]
- degree of neuronal differentiation [1]: significant neuronal differentiation
- degree of neuronal differentiation [2]: significant neuronal differentiation

Reference: patent US20090253618A1, “NEURONAL DIFFERENTIATION-INDUCING PEPTIDE AND USE THEREOF” (TOAGOSEI CO., LTD, priority 2005, published 2009)
